Measurements as given in patent publication US4725591A, “β-lactamase inhibitory composition” (Takeda Chemical Industries, Ltd., priority 1980, dated 1988).

Key:
[1] = test system: Enterobacter cloacae TN 587; test: Synergy with Cefotiam, agar dilution MIC; type: cell-based; conditions: 18 hours; for MIC of Cefotiam with 1 μg/ml of Compound: Table 3, 1 μg/ml test compound in agar, inoculum 10^8 per ml
Experimental: (§1) The inoculum concentration is 10^8 per ml, and the medium is prepared by using Trypticase® soy agar (Becton Dickinson & Company, USA).

Proteus vulgaris GN 5297 = test: Synergy with Cefotiam, agar dilution MIC; type: cell-based; conditions: 18 hours; for MIC of Cefotiam with 1 μg/ml of Compound: inoculum 10^8 per ml; for MIC of Cefotiam alone: Trypticase soy agar, unit assumed
Experimental: as §1

[2] = test system: Citrobacter freundii GN 1706; test: Synergy with Cefotiam, agar dilution MIC; type: cell-based; conditions: 18 hours; for MIC of Cefotiam with 1 μg/ml of Compound: inoculum 10^8 per ml; for MIC of Cefotiam alone: Trypticase soy agar, unit assumed
Experimental: as §1

[3] = test system: Citrobacter freundii IFO 12681; test: Synergy with Cefotiam, agar dilution MIC; type: cell-based; conditions: 18 hours; for MIC of Cefotiam with 1 μg/ml of Compound: Table 3, 1 μg/ml test compound in agar, inoculum 10^8 per ml
Experimental: as §1

[4] = test system: Serratia marcescens IFO 12648; test: Synergy with Cefotiam, agar dilution MIC; type: cell-based; conditions: 18 hours; for MIC of Cefotiam with 1 μg/ml of Compound: Table 3, 1 μg/ml test compound in agar, inoculum 10^8 per ml
Experimental: as §1

[5] = test system: Proteus morganii IFO 3168; test: Synergy with Cefotiam, agar dilution MIC; type: cell-based; conditions: 18 hours; for MIC of Cefotiam with 1 μg/ml of Compound: Table 3, 1 μg/ml test compound in agar, inoculum 10^8 per ml
Experimental: as §1

[6] = target: T1, β-lactamase produced by Enterobacter cloacae IFO 12937 (Enterobacter cloacae, UniProt P05364); test: Inhibitor concentration required to inhibit β-lactamase (cephalosporinase) activity by 50%, micro-iodometric method; type: biochemical; conditions: Enterobacter cloacae IFO 12937 cephalosporinase; 0.05M phosphate buffer pH 7, 30° C., 10 minutes preincubation; cephalothin or ampicillin 0.1 mM; read-out: I50 (converted)
T1 construct: The β-lactamase produced by Enterobacter cloacae IFO 12937; endogenous in cells; host or cells: Enterobacter cloacae IFO 12937
Experimental: Determination of the inhibitor concentration required to inhibit the enzyme activity by 50%
The β-lactamase produced by Enterobacter cloacae IFO 12937 is used as a typical example of cephalosporinase, and that produced by Staphylococcus aureus 1840 as typical example of penicillinase. The β-lactamase in incubated is 0.05M phosphate buffer (pH 7) with an appropriate dilution of an inhibitor preparation at 30° C. for 10 minutes. Cephalothin or ampicillin is then added in an amount sufficient to produce a final concentration of 0.1 mM, and the enzymatic reaction is allowed to proceed for 10 minutes. The enzyme activity is determined by the micro-iodometric method [Journal of general Microbiology, vol. 33, page 121 (1963)]. Hereinafter, the inhibitor concentration required to inhibit the enzyme activity by 50% is expressed as I50. The I50 values for Enterobacter cloaceae are shown in Table 1, and the I50 values for Staphylococcus aureus in Table 2.

Proteus morganii TN 387 = test: Synergy with Cefotiam, agar dilution MIC; type: cell-based; conditions: 18 hours; for MIC of Cefotiam with 1 μg/ml of Compound: Table 4, 1 μg/ml test compound in agar, inoculum 10^8 per ml
Experimental: as §1

[7] = test system: Enterobacter cloacae IFO 12937; test: Synergy with Cefotiam, agar dilution MIC; type: cell-based; conditions: 18 hours; for MIC of Cefotiam with 1 μg/ml of Compound: Table 4, 1 μg/ml test compound in agar, inoculum 10^8 per ml
Experimental: as §1

[8] = test system: Citrobacter freundii TN 512; test: Synergy with Cefotiam, agar dilution MIC; type: cell-based; conditions: 18 hours; for MIC of Cefotiam with 1 μg/ml of Compound: Table 4, 1 μg/ml test compound in agar, inoculum 10^8 per ml
Experimental: as §1

[9] = Table 3, 1 μg/ml test compound in agar
[10] = Table 4, 1 μg/ml test compound in agar
[11] = Table 3, inoculum 10^8 per ml, Trypticase soy agar, unit assumed
[12] = Table 4, inoculum 10^8 per ml, Trypticase soy agar, unit assumed

T1 sequence (P05364 21-381): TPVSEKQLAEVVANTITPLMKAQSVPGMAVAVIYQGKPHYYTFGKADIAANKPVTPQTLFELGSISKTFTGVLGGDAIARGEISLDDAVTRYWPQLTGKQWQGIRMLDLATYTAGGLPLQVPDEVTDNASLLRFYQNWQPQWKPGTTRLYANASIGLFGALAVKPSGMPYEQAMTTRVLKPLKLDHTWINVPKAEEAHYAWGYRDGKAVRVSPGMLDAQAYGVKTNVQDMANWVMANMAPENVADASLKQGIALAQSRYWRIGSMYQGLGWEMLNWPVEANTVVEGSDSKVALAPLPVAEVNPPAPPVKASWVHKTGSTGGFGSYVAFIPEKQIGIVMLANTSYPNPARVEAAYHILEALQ

| SMILES | MIC of Cefotiam with 1 μg/ml of Compound [1] | MIC of Cefotiam with 1 μg/ml of Compound (Proteus vulgaris GN 5297; [9]) | MIC of Cefotiam with 1 μg/ml of Compound [2, 9] | MIC of Cefotiam with 1 μg/ml of Compound [3] | MIC of Cefotiam with 1 μg/ml of Compound [4] | MIC of Cefotiam with 1 μg/ml of Compound [5] | IC50 [6] | MIC of Cefotiam with 1 μg/ml of Compound (Proteus vulgaris GN 5297; [10]) | MIC of Cefotiam with 1 μg/ml of Compound (Proteus morganii TN 387) | MIC of Cefotiam with 1 μg/ml of Compound [2, 10] | MIC of Cefotiam with 1 μg/ml of Compound [7] | MIC of Cefotiam with 1 μg/ml of Compound [8] | other results |
| --- | --- | --- | --- | --- | --- | --- | --- | --- | --- | --- | --- | --- | --- |
| CC(C)ON=C(C(=O)NC1CN(S(=O)(=O)[O-])C1=O)c1csc(NS(C)(=O)=O)n1.[Na+] (centres unmarked) | 12.5 | 100 | 100 | 12.5 | 200 | 25 | 4.4 nM | – | – | – | – | – | – |
| CON=C(C(=O)NC1CN(S(=O)(=O)O)C1=O)c1csc(NS(=O)(=O)O)n1 (centres unmarked) [Compound 29] | – | – | – | – | – | – | 163 nM | 200 | 100 | 12.5 | 0.78 | 0.39 | – |
| CON=C(C(=O)NC1CN(S(=O)(=O)O)C1=O)c1csc(N)n1 (centres unmarked) [Compound 12] | – | – | – | – | – | – | 4010 nM | 25 | 25 | 25 | 0.2 | < 0.2 | – |
| CN(C)CCn1nnnc1SCC1=C(C(=O)O)N2C(=O)[C@@H](NC(=O)Cc3csc(N)n3)[C@H]2SC1 [Cefotiam, reference compound] | – | – | – | – | – | – | – | – | – | – | – | – | MIC of Cefotiam alone [1, 11]: > 400 µg/mL; MIC of Cefotiam alone (Proteus vulgaris GN 5297; Table 3, inoculum 10^8 per ml): 100 µg/mL; MIC of Cefotiam alone (Proteus vulgaris GN 5297; Table 4, inoculum 10^8 per ml): 400 µg/mL; MIC of Cefotiam alone (Proteus morganii TN 387; [12]): 200 µg/mL; MIC of Cefotiam alone ([2]; Table 3, inoculum 10^8 per ml): 200 µg/mL; MIC of Cefotiam alone ([2]; Table 4, inoculum 10^8 per ml): 50 µg/mL; MIC of Cefotiam alone [3, 11]: 200 µg/mL; MIC of Cefotiam alone [7, 12]: 100 µg/mL; MIC of Cefotiam alone [4, 11]: > 400 µg/mL; MIC of Cefotiam alone [5, 11]: 400 µg/mL; MIC of Cefotiam alone [8, 12]: 625 µg/mL |
| CC(C)ON=C(C(=O)NC1CN(S(=O)(=O)O)C1=O)c1csc(NC(=O)CCl)n1 (centres unmarked) [Compound 28, Sodium 3-[2-(2-chloroacetamidothiazol-4-yl)-2-(1-methylethoxyimino)acetamido]-2-oxoazetidine-1-sulfonae] | 50 | 100 | 50 | 50 | 200 | 100 | 2420 nM | – | – | – | – | – | – |
| CC(C)(C)OC(=O)C(C)(C)ON=C(C(=O)NC1CN(S(=O)(=O)O)C1=O)c1csc(NC(c2ccccc2)(c2ccccc2)c2ccccc2)n1 (centres unmarked) [Compound 27, Sodium 3-[2-(2-tritylaminothiaozl-4-yl)-2-[(1-tert-butoxycarbonyl-1-methylethoxy)imino]acetamido]-2-oxoazetidine-1-sulfonate] | – | – | – | – | – | – | 69.5 nM | < 0.2 | < 0.2 | 3.13 | 0.39 | 0.39 | – |
| CC(C)(C)OC(=O)C(C)(C)ON=C(C(=O)NC1CN(S(=O)(=O)[O-])C1=O)c1csc(NS(=O)(=O)[O-])n1.[Na+].[Na+] (centres unmarked) | – | – | – | – | – | – | 9.14 nM | < 0.2 | 0.2 | 3.13 | 0.39 | 0.39 | – |
| Cc1onc(-c2c(Cl)cccc2Cl)c1C(=O)NC1CN(S(=O)(=O)O)C1=O (centres unmarked) [Compound 9] | – | – | – | – | – | – | 162 nM | 100 | < 0.2 | 3.13 | 0.39 | 0.39 | – |
| CC(C)ON=C(C(=O)NC1CN(S(=O)(=O)[O-])C1=O)c1csc(=N)n1S(C)(=O)=O.[Na+] (centres unmarked) | 3.13 | 100 | 50 | 6.25 | 200 | 50 | 4.19 nM | – | – | – | – | – | – |
| COC1(NC(=O)[C@H](NC(=O)N2CCN(N=Cc3ccco3)C2=O)c2ccccc2)CN(S(=O)(=O)O)C1=O (some centres unmarked) [Compound 3] | – | – | – | – | – | – | 617 nM | 400 | 0.39 | 12.5 | 3.13 | 0.39 | – |
